Literature values in US8252902B2, “Antibody targeting compounds” (The Scripps Research Institute, priority 2001, dated 2012).

Assays:
[1] = system: HIV primary isolates and laboratory-adapted strains
[2] = molecular target: VEGFR-2 (Homo sapiens, UniProt P35968)
[3] = system: VEGF-mediated angiogenesis

Chain of VEGFR-2 (P35968 20-1356, species assumed): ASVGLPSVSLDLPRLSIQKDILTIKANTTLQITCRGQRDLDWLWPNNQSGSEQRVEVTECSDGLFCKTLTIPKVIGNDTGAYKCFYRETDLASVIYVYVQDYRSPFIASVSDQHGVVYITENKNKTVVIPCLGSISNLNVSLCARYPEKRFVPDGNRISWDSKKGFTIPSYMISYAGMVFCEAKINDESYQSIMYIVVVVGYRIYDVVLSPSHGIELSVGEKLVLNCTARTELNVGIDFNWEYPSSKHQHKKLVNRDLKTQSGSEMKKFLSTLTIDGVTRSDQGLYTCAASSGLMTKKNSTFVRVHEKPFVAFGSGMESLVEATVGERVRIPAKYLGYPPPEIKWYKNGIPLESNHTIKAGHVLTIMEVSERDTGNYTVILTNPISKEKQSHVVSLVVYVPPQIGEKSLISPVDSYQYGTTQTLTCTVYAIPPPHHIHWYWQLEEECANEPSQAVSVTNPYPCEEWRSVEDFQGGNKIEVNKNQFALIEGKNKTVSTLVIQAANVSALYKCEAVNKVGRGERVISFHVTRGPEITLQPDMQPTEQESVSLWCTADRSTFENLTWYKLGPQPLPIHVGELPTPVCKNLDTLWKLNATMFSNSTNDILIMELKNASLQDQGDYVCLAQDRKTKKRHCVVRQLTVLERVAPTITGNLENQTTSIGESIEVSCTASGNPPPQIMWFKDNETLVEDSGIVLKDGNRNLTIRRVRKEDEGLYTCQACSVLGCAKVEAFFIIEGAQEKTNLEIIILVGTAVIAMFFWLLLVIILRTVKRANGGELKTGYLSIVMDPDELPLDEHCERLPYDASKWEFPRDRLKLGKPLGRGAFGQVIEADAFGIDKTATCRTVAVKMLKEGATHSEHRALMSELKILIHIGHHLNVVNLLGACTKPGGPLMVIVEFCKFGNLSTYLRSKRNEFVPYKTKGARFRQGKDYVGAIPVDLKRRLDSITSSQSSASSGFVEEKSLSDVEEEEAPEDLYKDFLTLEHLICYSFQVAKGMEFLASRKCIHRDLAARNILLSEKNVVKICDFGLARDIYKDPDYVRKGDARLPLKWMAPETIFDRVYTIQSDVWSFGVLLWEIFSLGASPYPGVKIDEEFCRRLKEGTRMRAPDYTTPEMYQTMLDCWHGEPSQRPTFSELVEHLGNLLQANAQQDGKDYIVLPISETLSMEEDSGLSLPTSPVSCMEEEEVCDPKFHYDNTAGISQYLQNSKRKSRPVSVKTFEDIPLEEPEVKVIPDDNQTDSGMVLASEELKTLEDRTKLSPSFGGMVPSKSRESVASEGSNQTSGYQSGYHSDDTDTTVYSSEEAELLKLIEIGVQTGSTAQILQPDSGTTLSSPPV

C=C(C)[C@@H]1CC[C@]2(C(=O)NCCCCCCCC(=O)N[C@@H](CC(C)C)[C@H](O)CC(=O)O)CC[C@]3(C)[C@H](CC[C@@H]4[C@@]5(C)CC[C@H](O)C(C)(C)[C@@H]5CC[C@]43C)[C@@H]12 [IC9564]
anti-HIV activity [1]: can inhibit both HIV primary isolates and laboratory-adapted strains

ATWLPPR (homo sapiens) [ATWLPPR (SEQ ID NO: 2)]
interference with VEGF binding to VEGFR-2 [2]: effectively interfered
inhibition of VEGF-mediated angiogenesis [3]: inhibited
